From ChEMBL document CHEMBL4842324, “PdCl2-catalyzed synthesis of a new class of isocoumarin derivatives containing aminosulfonyl / aminocarboxamide moiety: First identification of a isocoumarin based PDE4 inhibitor” (Eur J Med Chem, 2021)
The source made the active and inactive calls. The calls are words filed in the database; no cut-off is given here.

Key:
[1] = molecular target: T1, 3',5'-cyclic-AMP phosphodiesterase 4B (Homo sapiens, UniProt Q07343); assay: Inhibition of PDE4B (unknown origin) using [3H]cAMP as substrate incubated for 30 mins by scintillation proximity assay
T1 sequence (Q07343 whole entry): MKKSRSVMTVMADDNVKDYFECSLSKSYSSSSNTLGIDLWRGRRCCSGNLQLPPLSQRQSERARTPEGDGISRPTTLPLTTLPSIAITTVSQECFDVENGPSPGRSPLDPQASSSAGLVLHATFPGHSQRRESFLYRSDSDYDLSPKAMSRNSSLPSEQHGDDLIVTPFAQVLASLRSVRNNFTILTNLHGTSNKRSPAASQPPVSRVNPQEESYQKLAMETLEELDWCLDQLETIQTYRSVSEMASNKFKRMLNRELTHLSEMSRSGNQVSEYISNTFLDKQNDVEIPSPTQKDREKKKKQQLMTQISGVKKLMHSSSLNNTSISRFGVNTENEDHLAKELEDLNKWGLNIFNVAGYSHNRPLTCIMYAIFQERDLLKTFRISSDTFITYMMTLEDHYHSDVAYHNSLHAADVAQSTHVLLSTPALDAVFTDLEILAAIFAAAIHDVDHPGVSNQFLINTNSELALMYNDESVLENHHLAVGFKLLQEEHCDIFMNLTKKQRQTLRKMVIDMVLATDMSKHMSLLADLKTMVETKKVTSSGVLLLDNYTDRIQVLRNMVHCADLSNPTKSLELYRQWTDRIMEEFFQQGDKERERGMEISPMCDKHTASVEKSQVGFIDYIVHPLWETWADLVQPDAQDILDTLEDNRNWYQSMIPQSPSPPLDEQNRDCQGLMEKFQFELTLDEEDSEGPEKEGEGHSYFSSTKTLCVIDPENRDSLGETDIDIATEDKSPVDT

[2] = molecular target: T1, 3',5'-cyclic-AMP phosphodiesterase 4B; assay: Inhibition of PDE4B (unknown origin) using [3H]cAMP as substrate at 10 uM incubated for 30 mins by scintillation proximity assay relative to control
[3] = molecular target: 3',5'-cyclic-AMP phosphodiesterase 4D (Homo sapiens, UniProt Q08499); assay: Inhibition of PDE4D (unknown origin)
3',5'-cyclic-AMP phosphodiesterase 4D, sequence (Q08499 whole entry): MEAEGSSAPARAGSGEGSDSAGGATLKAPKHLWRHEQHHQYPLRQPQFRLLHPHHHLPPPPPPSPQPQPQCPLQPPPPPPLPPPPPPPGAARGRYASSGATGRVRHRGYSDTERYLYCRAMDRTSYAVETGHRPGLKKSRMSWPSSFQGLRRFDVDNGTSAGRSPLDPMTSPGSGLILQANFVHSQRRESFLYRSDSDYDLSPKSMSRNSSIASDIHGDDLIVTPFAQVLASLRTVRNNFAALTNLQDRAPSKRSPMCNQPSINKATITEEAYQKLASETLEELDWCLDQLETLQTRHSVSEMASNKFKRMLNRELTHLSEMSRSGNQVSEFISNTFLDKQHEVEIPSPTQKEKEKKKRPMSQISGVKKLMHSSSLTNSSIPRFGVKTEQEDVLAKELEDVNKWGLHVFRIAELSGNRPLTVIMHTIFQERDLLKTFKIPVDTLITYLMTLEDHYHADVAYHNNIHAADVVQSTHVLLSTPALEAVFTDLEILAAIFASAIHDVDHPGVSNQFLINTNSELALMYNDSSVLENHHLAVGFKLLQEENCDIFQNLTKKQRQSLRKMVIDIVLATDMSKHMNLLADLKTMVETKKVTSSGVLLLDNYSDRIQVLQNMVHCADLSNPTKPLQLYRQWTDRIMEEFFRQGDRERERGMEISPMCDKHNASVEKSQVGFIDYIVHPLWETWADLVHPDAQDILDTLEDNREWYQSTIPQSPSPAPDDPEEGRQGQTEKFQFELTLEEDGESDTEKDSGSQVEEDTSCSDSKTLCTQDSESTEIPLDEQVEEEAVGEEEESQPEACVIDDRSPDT

Homo sapiens = species on record: Homo sapiens; assay: Selectivity ratio of IC50 for PDE4D (unknown origin) to IC50 for PDE4B (unknown origin)
[4] = molecular target: Tumor necrosis factor (Homo sapiens) (UniProt P01375); assay: Inhibition of TNF-alpha (unknown origin) at 0.1 uM relative to control
Tumor necrosis factor (Homo sapiens), sequence (P01375 whole entry): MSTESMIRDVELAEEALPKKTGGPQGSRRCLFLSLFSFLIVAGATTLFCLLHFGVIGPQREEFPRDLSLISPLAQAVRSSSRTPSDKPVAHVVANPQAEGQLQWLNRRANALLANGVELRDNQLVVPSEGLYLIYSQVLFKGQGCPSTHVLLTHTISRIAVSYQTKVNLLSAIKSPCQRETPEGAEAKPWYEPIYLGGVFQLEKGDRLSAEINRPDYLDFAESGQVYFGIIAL

[5] = molecular target: cGMP-inhibited 3',5'-cyclic phosphodiesterase 3A (Homo sapiens) (UniProt Q14432); assay: Inhibition of PDE3A (unknown origin) at 10 uM relative to control
[6] = molecular target: 3',5'-cyclic-AMP phosphodiesterase 7B (Homo sapiens) (UniProt Q9NP56); assay: Inhibition of PDE7B (unknown origin) at 10 uM relative to control
3',5'-cyclic-AMP phosphodiesterase 7B (Homo sapiens), sequence (Q9NP56 whole entry): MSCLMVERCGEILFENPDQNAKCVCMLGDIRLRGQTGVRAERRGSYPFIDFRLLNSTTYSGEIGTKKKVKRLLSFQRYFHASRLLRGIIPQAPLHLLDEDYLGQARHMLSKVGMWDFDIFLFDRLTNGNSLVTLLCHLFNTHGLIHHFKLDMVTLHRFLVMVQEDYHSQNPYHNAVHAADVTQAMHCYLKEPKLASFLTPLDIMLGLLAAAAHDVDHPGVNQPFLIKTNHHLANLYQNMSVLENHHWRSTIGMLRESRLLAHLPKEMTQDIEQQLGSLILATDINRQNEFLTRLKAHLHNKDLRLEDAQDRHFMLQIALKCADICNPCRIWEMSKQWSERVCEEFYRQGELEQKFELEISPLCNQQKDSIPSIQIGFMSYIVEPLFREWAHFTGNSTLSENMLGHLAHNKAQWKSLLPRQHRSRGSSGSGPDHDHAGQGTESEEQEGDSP

[7] = molecular target: cGMP-dependent 3',5'-cyclic phosphodiesterase (Homo sapiens) (UniProt O00408); assay: Inhibition of PDE2A1 (unknown origin) at 10 uM relative to control
[8] = molecular target: Dual specificity calcium/calmodulin-dependent 3',5'-cyclic nucleotide phosphodiesterase 1B (Homo sapiens) (UniProt Q01064); assay: Inhibition of PDE1B (unknown origin) at 10 uM relative to control
[9] = molecular target: cGMP-inhibited 3',5'-cyclic phosphodiesterase 3B (Homo sapiens) (UniProt Q13370); assay: Inhibition of PDE3B (unknown origin) at 10 uM relative to control
cGMP-inhibited 3',5'-cyclic phosphodiesterase 3B (Homo sapiens), sequence (Q13370 whole entry, looked up): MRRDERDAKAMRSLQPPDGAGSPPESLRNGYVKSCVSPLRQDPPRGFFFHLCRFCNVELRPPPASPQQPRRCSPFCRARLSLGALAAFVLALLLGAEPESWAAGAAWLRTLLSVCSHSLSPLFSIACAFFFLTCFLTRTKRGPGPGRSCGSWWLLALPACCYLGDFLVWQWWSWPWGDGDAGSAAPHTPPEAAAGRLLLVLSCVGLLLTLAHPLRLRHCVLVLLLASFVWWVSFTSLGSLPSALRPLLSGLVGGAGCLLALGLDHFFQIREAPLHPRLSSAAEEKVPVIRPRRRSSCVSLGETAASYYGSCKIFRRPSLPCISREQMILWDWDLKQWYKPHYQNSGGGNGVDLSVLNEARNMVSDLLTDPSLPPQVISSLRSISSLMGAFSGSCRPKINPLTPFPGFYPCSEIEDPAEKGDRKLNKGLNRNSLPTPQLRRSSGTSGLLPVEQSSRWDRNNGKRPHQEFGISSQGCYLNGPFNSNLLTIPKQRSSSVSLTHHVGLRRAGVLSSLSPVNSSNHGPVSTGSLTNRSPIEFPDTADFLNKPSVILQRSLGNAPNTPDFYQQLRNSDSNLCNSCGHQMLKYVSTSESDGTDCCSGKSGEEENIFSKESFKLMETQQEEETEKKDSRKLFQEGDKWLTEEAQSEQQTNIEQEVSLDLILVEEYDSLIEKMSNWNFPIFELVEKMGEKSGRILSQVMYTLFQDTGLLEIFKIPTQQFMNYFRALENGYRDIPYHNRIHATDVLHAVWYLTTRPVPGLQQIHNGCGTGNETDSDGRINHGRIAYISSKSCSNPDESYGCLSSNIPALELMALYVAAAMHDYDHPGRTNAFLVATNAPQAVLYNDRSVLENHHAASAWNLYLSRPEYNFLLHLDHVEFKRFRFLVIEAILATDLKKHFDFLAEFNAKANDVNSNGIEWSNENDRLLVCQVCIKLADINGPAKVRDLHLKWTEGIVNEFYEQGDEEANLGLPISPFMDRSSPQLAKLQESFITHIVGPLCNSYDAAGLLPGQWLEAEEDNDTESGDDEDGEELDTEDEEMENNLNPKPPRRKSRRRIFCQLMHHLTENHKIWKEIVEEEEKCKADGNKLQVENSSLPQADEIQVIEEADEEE

[10] = molecular target: cAMP and cAMP-inhibited cGMP 3',5'-cyclic phosphodiesterase 10A (Homo sapiens) (UniProt Q9Y233); assay: Inhibition of PDE10A1 (unknown origin) at 10 uM relative to control
cAMP and cAMP-inhibited cGMP 3',5'-cyclic phosphodiesterase 10A (Homo sapiens), sequence (Q9Y233 whole entry): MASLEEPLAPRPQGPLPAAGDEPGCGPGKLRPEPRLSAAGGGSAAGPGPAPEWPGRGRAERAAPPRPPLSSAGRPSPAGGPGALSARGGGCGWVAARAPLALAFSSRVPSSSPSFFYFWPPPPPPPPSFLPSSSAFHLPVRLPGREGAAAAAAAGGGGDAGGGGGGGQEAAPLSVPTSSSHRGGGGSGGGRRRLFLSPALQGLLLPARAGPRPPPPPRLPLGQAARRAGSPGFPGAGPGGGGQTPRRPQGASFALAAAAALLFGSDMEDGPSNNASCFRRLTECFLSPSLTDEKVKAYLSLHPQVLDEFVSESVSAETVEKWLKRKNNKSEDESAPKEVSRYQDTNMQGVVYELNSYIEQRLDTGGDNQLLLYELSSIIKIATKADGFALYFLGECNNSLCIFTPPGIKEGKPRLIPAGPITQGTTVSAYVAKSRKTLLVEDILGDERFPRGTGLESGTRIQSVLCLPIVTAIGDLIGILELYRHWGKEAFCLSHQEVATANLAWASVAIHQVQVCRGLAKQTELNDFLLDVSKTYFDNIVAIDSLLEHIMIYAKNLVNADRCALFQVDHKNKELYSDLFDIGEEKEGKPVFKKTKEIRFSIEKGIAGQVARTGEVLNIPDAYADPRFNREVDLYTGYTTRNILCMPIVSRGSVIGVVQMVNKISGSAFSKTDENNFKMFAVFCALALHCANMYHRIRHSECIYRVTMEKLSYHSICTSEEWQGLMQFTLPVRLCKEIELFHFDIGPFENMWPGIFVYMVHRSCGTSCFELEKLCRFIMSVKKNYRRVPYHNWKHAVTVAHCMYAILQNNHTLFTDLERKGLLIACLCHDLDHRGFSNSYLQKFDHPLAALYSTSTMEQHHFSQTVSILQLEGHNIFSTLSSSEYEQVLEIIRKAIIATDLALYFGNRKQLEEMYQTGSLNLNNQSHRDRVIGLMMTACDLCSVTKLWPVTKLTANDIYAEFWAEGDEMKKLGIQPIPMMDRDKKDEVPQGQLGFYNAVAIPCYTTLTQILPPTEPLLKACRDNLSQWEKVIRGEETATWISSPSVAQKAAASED

[11] = molecular target: Tumor necrosis factor (Homo sapiens) (UniProt P01375); assay: Inhibition of TNF-alpha (unknown origin) at 0.3 uM relative to control
[12] = molecular target: High affinity cAMP-specific and IBMX-insensitive 3',5'-cyclic phosphodiesterase 8A (Homo sapiens) (UniProt O60658); assay: Inhibition of PDE8A1 (unknown origin) at 10 uM relative to control
[13] = molecular target: cAMP and cAMP-inhibited cGMP 3',5'-cyclic phosphodiesterase 10A (Homo sapiens) (UniProt Q9Y233); assay: Inhibition of PDE10A2 (unknown origin) at 10 uM relative to control
[14] = molecular target: cGMP-specific 3',5'-cyclic phosphodiesterase (Homo sapiens) (UniProt O76074); assay: Inhibition of PDE5A1 (unknown origin) at 10 uM relative to control
[15] = Toxicity in zebrafish embryos assessed as induction of apoptosis at 1 to 100 uM; parameters: species or system Danio rerio; settings: dose 1-100 µM
[16] = molecular target: Cone cGMP-specific 3',5'-cyclic phosphodiesterase subunit alpha' (Homo sapiens) (UniProt P51160); assay: Inhibition of PDE6C (unknown origin) at 10 uM relative to control
[17] = molecular target: Tumor necrosis factor (Homo sapiens) (UniProt P01375); assay: Inhibition of TNF-alpha (unknown origin) at 1 uM relative to control
RAW264.7 = assay: Cytotoxicity against mouse RAW264.7 cells assessed as reduction in cell viability measured after 48 hrs by MTT assay; format: cell-based; settings: RAW264.7, 48 h
Rattus norvegicus [18] = assay: Antiinflammatory activity against complete Freund's adjuvant induced rat model of arthritis assessed as improvement in intestinal absorption at 30 mg/kg, ip measured on day 21; format: functional, organism-based; settings: time 21.0 day
[19] = Hepatotoxicity in zebrafish embryos assessed as liver degeneration at 1 to 100 uM; format: toxicity, Danio rerio; settings: in vivo, dose 1-100 µM
[20] = molecular target: Tumor necrosis factor (Homo sapiens) (UniProt P01375); assay: Inhibition of TNF-alpha (unknown origin) at 10 uM relative to control
[21] = Cardiac toxicity in zebrafish embryos assessed as effect on heart rate at 1 to 100 uM; parameters: species or system Danio rerio; settings: in vivo, dose 1-100 µM
Rattus norvegicus [22] = assay: Antiinflammatory activity against complete Freund's adjuvant induced ip dosed rat model of arthritis assessed as reduction in paw swelling measured on day 21 by macroscopic analysis; format: functional, organism-based; settings: time 21.0 day
[23] = molecular target: Dual specificity calcium/calmodulin-dependent 3',5'-cyclic nucleotide phosphodiesterase 1A (Homo sapiens) (UniProt P54750); assay: Inhibition of PDE1A1 (unknown origin) at 10 uM relative to control
[24] = Hepatotoxicity in zebrafish embryos assessed as effect on liver size at 1 to 100 uM; format: toxicity, Danio rerio; settings: in vivo, dose 1-100 µM
[25] = molecular target: Tumor necrosis factor (Homo sapiens) (UniProt P01375); assay: Inhibition of TNF-alpha (unknown origin) at 3 uM relative to control
Rattus norvegicus [26] = assay: Antiinflammatory activity against complete Freund's adjuvant induced rat model of arthritis assessed as decrease in pathological changes at 30 mg/kg, ip measured on day 21 by H and E staining based histopathological analysis; format: functional, organism-based; settings: time 21.0 day
Rattus norvegicus [27] = assay: Antiinflammatory activity against complete Freund's adjuvant induced rat model of arthritis assessed as reduction in paw volume at 30 mg/kg, ip measured on day 21 by macroscopic analysis; format: functional, organism-based; settings: time 21.0 day
Rattus norvegicus [28] = assay: Antiinflammatory activity against complete Freund's adjuvant induced rat model of arthritis assessed as decrease in TNF-alpha expression at 10 to 30 mg/kg, ip by immunohistochemical staining based assay; format: functional, organism-based; settings: dose 10-30 mg/kg
[29] = Toxicity in zebrafish embryos assessed as teratogenicity at 1 to 100 uM; parameters: species or system Danio rerio; settings: in vivo, dose 1-100 µM
Rattus norvegicus [30] = assay: Antiinflammatory activity against complete Freund's adjuvant induced rat model of arthritis assessed as effect on IL-6 expression at 10 to 30 mg/kg, ip by immunohistochemical staining based assay; format: functional, organism-based; settings: dose 10-30 mg/kg
Rattus norvegicus [31] = assay: Antiinflammatory activity against complete Freund's adjuvant induced rat model of arthritis assessed as reduction in joint degeneration changes at 30 mg/kg, ip measured on day 21 by H and E staining based histopathological analysis; format: functional, organism-based; settings: time 21.0 day
[32] = molecular target: High affinity 3',5'-cyclic-AMP phosphodiesterase 7A (Homo sapiens) (UniProt Q13946); assay: Inhibition of PDE7A1 (unknown origin) at 10 uM relative to control
[33] = molecular target: Dual 3',5'-cyclic-AMP and -GMP phosphodiesterase 11A (Homo sapiens) (UniProt Q9HCR9); assay: Inhibition of PDE11A4 (unknown origin) at 10 uM relative to control
[34] = molecular target: High affinity cGMP-specific 3',5'-cyclic phosphodiesterase 9A (Homo sapiens) (UniProt O76083); assay: Inhibition of PDE9A2 (unknown origin) at 10 uM relative to control
High affinity cGMP-specific 3',5'-cyclic phosphodiesterase 9A (Homo sapiens), sequence (O76083 whole entry): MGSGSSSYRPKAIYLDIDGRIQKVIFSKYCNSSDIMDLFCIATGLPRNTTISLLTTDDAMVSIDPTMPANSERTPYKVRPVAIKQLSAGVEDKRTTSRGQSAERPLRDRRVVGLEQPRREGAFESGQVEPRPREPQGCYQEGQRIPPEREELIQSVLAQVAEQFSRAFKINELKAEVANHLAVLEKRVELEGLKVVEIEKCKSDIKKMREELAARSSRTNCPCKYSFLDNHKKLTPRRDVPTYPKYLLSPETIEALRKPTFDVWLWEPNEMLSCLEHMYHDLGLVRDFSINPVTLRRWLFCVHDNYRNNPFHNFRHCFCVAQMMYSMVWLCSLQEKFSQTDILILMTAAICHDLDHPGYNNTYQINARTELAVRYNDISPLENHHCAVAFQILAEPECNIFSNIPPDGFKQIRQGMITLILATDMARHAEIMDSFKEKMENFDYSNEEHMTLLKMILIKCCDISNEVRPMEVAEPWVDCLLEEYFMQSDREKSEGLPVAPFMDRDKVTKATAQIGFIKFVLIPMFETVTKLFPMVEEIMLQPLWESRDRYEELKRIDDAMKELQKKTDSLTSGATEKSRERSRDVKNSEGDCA

[35] = molecular target: Dual specificity calcium/calmodulin-dependent 3',5'-cyclic nucleotide phosphodiesterase 1C (Homo sapiens) (UniProt Q14123); assay: Inhibition of PDE1C (unknown origin) at 10 uM relative to control
Rattus norvegicus [36] = assay: Antiinflammatory activity against complete Freund's adjuvant induced rat model of arthritis assessed as reduction in paw volume at 1 mg/kg, po administered once daily measured on day 21 by macroscopic analysis; format: functional, organism-based; settings: time 21.0 day
Rattus norvegicus [37] = assay: Antiinflammatory activity against complete Freund's adjuvant induced rat model of arthritis assessed as reduction in joint structure deformity at 1 mg/kg, ip measured on day 21 by radiographic analysis; format: functional, organism-based; settings: time 21.0 day

Compound: C=CCc1c(-c2cccc(NS(=O)(=O)c3cccs3)c2)oc(=O)c2ccc(Cl)cc12
- IC50 [1]: 4010 nM
- inhibition [2]: 75.7%

Compound: C=CCc1c(-c2cccc(NS(=O)(=O)c3ccccc3)c2)oc(=O)c2cc(F)ccc12
- IC50 [3]: 900 nM
- Ratio IC50 (Homo sapiens): 2
- IC50 [1]: 430 nM
- inhibition [2]: 82.2%

Compound: C=CCc1c(-c2cccc(NS(C)(=O)=O)c2)oc(=O)c2ccccc12
- inhibition [2]: 55.8%

Compound: C=CCc1c(-c2cccc(NS(=O)(=O)c3ccccc3)c2)oc(=O)c2ccc(Cl)cc12
- IC50 [1]: 4780 nM
- inhibition [2]: 81.2%

Compound: COc1ccc(C2CNC(=O)C2)cc1OC1CCCC1 (stereo unspecified)
- inhibition [4]: 50.3%
- inhibition [2]: 77.2%

Compound: C=CCc1c(-c2cccc(NS(=O)(=O)c3cccs3)c2)oc(=O)c2cc(F)ccc12
- inhibition [5]: 11%
- inhibition [6]: 3%
- IC50 [3]: 1340 nM
- inhibition [7]: 9%
- inhibition [8]: 18%
- Ratio IC50 (Homo sapiens): 2.5
- inhibition [9]: 7%
- inhibition [10]: 12%
- inhibition [11]: 30.9%
- inhibition [12]: 2%
- inhibition [13]: 19%
- inhibition [14]: 8%
- Activity [15]: Non-Toxic
- inhibition [16]: 10%
- inhibition [17]: 40.3%
- IC50 (RAW264.7): > 100 µM
- Activity (Rattus norvegicus [18]): Active
- Activity [19]: Non-Toxic
- inhibition [20]: 65.5%
- Activity [21]: Non-Toxic
- Activity (Rattus norvegicus [22]): Dose-Dependent Effect
- inhibition [23]: 21%
- Activity [24]: Non-Toxic
- inhibition [25]: 45.6%
- Activity (Rattus norvegicus [26]): Active
- Activity (Rattus norvegicus [27]): Active
- IC50 [1]: 540 nM
- inhibition [2]: 96%
- Activity (Rattus norvegicus [28]): Active
- Activity [29]: Non-Toxic
- Activity (Rattus norvegicus [30]): inactive
- Activity (Rattus norvegicus [31]): Active
- inhibition [32]: 6%
- inhibition [33]: 11%
- inhibition [34]: 8%
- inhibition [35]: 24%

Compound: C=CCc1c(-c2cccc(NS(C)(=O)=O)c2)oc(=O)c2cc(F)ccc12
- IC50 [1]: 1940 nM
- inhibition [2]: 90.9%

Compound: C=CCc1c(-c2cccc(NS(=O)(=O)c3ccccc3)c2)oc(=O)c2ccccc12
- IC50 [1]: 1240 nM
- inhibition [2]: 82.9%

Compound: C=CCc1c(-c2ccc(NS(=O)(=O)c3ccccc3)cc2)oc(=O)c2ccccc12
- IC50 [1]: 3910 nM
- inhibition [2]: 87.6%

Compound: C=CCc1c(-c2ccc(NS(=O)(=O)c3ccc(C)cc3)cc2)oc(=O)c2cc(F)ccc12
- IC50 [1]: 2360 nM
- inhibition [2]: 94%

Compound: C=CCc1c(-c2ccc(NC(=O)c3ccccc3)cc2)oc(=O)c2ccccc12
- inhibition [2]: 46.5%

Compound: C=CCc1c(-c2ccc(NS(=O)(=O)c3ccccc3)cc2)oc(=O)c2cc(F)ccc12
- IC50 [1]: 1910 nM
- inhibition [2]: 94.4%

Compound: C=CCc1c(-c2ccc(NS(C)(=O)=O)cc2)oc(=O)c2ccc(Cl)cc12
- inhibition [2]: 56%

Compound: C=CCc1c(-c2cccc(NC(=O)c3ccccc3)c2)oc(=O)c2cc(F)ccc12
- inhibition [2]: 74.6%

Compound: C=CCc1c(-c2cccc(NS(=O)(=O)c3cccs3)c2)oc(=O)c2ccccc12
- IC50 [1]: 1760 nM
- inhibition [2]: 85.9%

Compound: C=CCc1c(-c2cccc(NS(=O)(=O)c3ccc(C(F)(F)F)cc3)c2)oc(=O)c2ccccc12
- inhibition [2]: 55.3%

Compound: C=CCc1c(-c2ccc(NS(=O)(=O)c3ccc(C)cc3)cc2)oc(=O)c2ccccc12
- inhibition [2]: 63.5%

Compound: C=CCc1c(-c2cccc(NS(C)(=O)=O)c2)oc(=O)c2ccc(Cl)cc12
- inhibition [2]: 62.2%

Compound: C=CCc1c(-c2cccc(NS(=O)(=O)c3ccc(OC)cc3)c2)oc(=O)c2ccccc12
- IC50 [1]: 3330 nM
- inhibition [2]: 80%

Compound: C=CCc1c(-c2cccc(NS(=O)(=O)c3ccc(C)cc3)c2)oc(=O)c2ccccc12
- IC50 [1]: 2070 nM
- inhibition [2]: 77.8%

Compound: CN(Cc1cnc2nc(N)nc(N)c2n1)c1ccc(C(=O)N[C@@H](CCC(=O)O)C(=O)O)cc1
- Activity (Rattus norvegicus [36]): Active
- Activity (Rattus norvegicus [37]): inactive
- Activity (Rattus norvegicus [28]): Active

Compound: C=CCc1c(-c2cccc(NS(=O)(=O)c3ccc(C)cc3)c2)oc(=O)c2cc(F)ccc12
- IC50 [1]: 3040 nM
- inhibition [2]: 79.7%

Compound: C=CCc1c(-c2cccc(NC(=O)c3ccccc3)c2)oc(=O)c2ccccc12
- inhibition [2]: 72.6%

Compound: C=CCc1c(-c2ccc(NS(C)(=O)=O)cc2)oc(=O)c2ccccc12
- inhibition [2]: 54.9%
